Source: article PMC4713475, “In Vivo Differences between Two Optical Isomers of Radioiodinated o-iodo-trans-decalinvesamicol for Use as a Radioligand for the Vesicular Acetylcholine Transporter” (PLoS ONE, 2016)

Tests used:
[1] = target: T1, VAChT (Rattus norvegicus, UniProt Q62666); test: Ex vivo autoradiography of rat brain; format: in vivo; settings: 60 min post-injection
T1 construct: from tissue; host or cells: brain of live male Sprague-Dawley rats (in vivo)
T1 sequence (Q62666 1-530): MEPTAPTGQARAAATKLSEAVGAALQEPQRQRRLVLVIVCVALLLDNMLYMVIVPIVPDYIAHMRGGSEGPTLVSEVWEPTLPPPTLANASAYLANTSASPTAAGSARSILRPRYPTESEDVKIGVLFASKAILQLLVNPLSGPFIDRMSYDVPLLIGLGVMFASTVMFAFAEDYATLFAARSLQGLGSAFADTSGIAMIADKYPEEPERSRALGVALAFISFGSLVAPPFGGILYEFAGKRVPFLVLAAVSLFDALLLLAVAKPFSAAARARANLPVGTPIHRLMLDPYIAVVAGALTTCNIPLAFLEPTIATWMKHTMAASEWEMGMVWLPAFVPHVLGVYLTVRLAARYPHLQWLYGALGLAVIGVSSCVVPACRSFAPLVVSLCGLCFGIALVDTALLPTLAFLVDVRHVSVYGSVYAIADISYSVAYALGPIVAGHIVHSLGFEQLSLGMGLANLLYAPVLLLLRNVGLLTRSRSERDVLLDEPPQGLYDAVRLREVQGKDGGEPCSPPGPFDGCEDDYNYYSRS
Procedure: Four SD rats were injected intravenously with either (-)-[^125I]OIDV or (+)-[^125I]OIDV (0.4 mL, 1.85 MBq) either alone as a control or with 0.25 μmol (+/–)-vesamicol via the tail vein. At 60 min post-injection, the rats were sacrificed by exsanguination, and perfused via the left ventricle with saline solution (50 mL) followed by 4% paraformaldehyde (pH 7.4, 0.1 M phosphate buffer, 100 mL). Whole brains were removed, frozen in embedding medium at -78°C and cut into 20 μm sections at -25°C using a cryostat microtome. The sections were apposed to an imaging plate (Fujifilm, BAS-IP SR 2025) for eight days. The imaging plates were scanned by a BAS-5000 phosphor image reader (Fujifilm). Ex vivo autoradiograhy of (-)-[^123I]OIDV(0.4 mL, 111 MBq) was performed by the same method of two [^125I]OIDV isomers.

[2] = In vivo biodistribution study in rats; parameters: species or system rat; settings: for Biodistribution, Blood / Biodistribution, Cerebellum / Biodistribution, Cortex / Biodistribution, Heart / Biodistribution, Kidney / Biodistribution, Liver / Biodistribution, Lung / Biodistribution, Pancreas / Biodistribution, Rest brain / Biodistribution, Small intestine / Biodistribution, Spleen / Biodistribution, Stomach / Biodistribution, Striatum: n = 4, mean ± SD
Procedure: Three groups of male Sprague-Dawley (SD) rats (n = 4 in each group), weighing 250–300 g, were anesthetized with ether and given an intravenous (i.v.) injection of (-)-[^125I]OIDV or (+)-[^125I]OIDV (0.4 mL, 185 kBq). At 2, 30, and 60 min post-injection, the animals were sacrificed by decapitation under ether anesthesia. The organs of interest were dissected, weighed, and the radioactivity levels were measured in a gamma scintillation counter (AccuFLEX γ7010, Aloka, Tokyo). The degree of accumulation of radiotracer was expressed as a percentage of the injected dose per gram of tissue (% ID/g).
(§1) The results of biodistribution study were statistically analyzed using one-way ANOVA (non-parametric) followed by a Mann Whitney test. Statistical comparisons for the in vivo blocking experiments were performed using one-way ANOVA (non-parametric), Kruskal-Wallis test, and Dunn’s Multiple Comparison test.

[3] = target: T1, VAChT; test: In vivo blocking study of regional brain uptake; settings: rats, 60 min
Procedure: The rats were sacrificed 60 minutes after injection and their brains collected. The cortex, striatum, cerebellum, and the remainder of the brain were dissected and separated, and their weights and radioactivity measured.
as §1

[4] = target: T2, σ-2 receptor (Rattus norvegicus, UniProt Q5U3Y7); test: σ-2 receptor competitive binding with [3H]DTG in rat liver preparations; settings: read-out: Ki σ-2
T2 construct: Rat liver preparations (about 100 μg protein) were incubated in quadruplicate; from tissue; host or cells: liver of male Sprague-Dawley rats
T2 sequence (Q5U3Y7 1-176): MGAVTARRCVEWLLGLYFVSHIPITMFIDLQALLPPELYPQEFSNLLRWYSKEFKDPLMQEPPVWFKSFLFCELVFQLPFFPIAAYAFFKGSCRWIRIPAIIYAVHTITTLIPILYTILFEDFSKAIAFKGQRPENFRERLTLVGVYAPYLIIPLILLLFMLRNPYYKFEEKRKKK
Procedure: Rat brain and liver tissue preparations were prepared from dissected brains (not including the cerebellum) and livers from male Sprague-Dawley rats (250–300 g), as previously described[34].
The incubated samples were treated in the same manner as described for the σ-1 receptor binding assay.
(§2) Ki values were calculated using Graphpad Prism (GraphPad Software, Inc. San Diego, USA).

[5] = target: σ-1 receptor (Rattus norvegicus, UniProt Q9R0C9); test: σ-1 receptor competitive binding with (+)-[3H]pentazocine in rat cerebrum preparations
σ-1 receptor, sequence (Q9R0C9 whole entry): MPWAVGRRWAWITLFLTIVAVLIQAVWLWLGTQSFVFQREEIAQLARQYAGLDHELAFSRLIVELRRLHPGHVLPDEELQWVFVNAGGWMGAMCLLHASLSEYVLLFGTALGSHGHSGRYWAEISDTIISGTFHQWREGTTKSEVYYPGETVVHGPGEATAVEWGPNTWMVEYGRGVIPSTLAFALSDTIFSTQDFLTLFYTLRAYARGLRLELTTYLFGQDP
Procedure: The incubated samples were treated in the same manner as described for the VAChT binding assays, except that Whatman GF/B glass fiber filters were used.
as §2

Q: For `OC1C[C@@H]2CCCC[C@H]2CC1N1CCC(c2ccccc2[125I])CC1` (single isomer, unassigned; (-)) [(-)-[^125I]OIDV], which “brain accumulation by ex vivo autoradiography with co-injection of vesamicol” value ([1]; 0.25 μmol vesamicol co-injected) is on record?
A: Its value is “remarkably decreased”.

Q: And the “regional brain distribution by ex vivo autoradiography” value ([1]; tracer alone)?
A: The value was “distributed in characteristically VAChT-rich regions”.

Q: What about the “striatum distribution relative to (+)-[125I]OIDV” value ([2]; at 30 min and 60 min post-injection) of the same compound?
A: The value was 1.4–1.6 times.

Q: And the “retention of accumulated radioactivity in brain” value ([2]; i.v.)?
A: The value was “greater than 60 min”.

Q: What about the “Biodistribution, Blood” value ([2]; i.v., 2 min post-injection) of the same compound?
A: Its value is 0.13 ± 0.01 % ID/g.

Q: And the “Biodistribution, Cerebellum” value ([2]; i.v., 2 min post-injection)?
A: Its value is 0.53 ± 0.04 % ID/g.

Q: And the “Biodistribution, Cortex” value ([2]; i.v., 2 min post-injection)?
A: The value was 0.55 ± 0.10 % ID/g.

Q: What about the “Biodistribution, Heart” value ([2]; i.v., 2 min post-injection) of the same compound?
A: The value was 2.34 ± 0.23 % ID/g.

Q: And the “Biodistribution, Kidney” value ([2]; i.v., 2 min post-injection)?
A: The value was 2.84 ± 0.63 % ID/g.

Q: What about the “Biodistribution, Liver” value ([2]; i.v., 2 min post-injection) of the same compound?
A: Its value is 2.07 ± 0.63 % ID/g.

Q: And the “Biodistribution, Lung” value ([2]; i.v., 2 min post-injection)?
A: The value was 5.84 ± 0.44 % ID/g.

Q: What about the “Biodistribution, Pancreas” value ([2]; i.v., 2 min post-injection) of the same compound?
A: The value was 2.66 ± 0.40 % ID/g.

Q: And the “Biodistribution, Rest brain” value ([2]; i.v., 2 min post-injection)?
A: The value was 0.48 ± 0.07 % ID/g.

Q: What about the “Biodistribution, Small intestine” value ([2]; i.v., 2 min post-injection) of the same compound?
A: The value was 0.89 ± 0.12 % ID/g.

Q: What about the “Biodistribution, Spleen” value ([2]; i.v., 2 min post-injection) of the same compound?
A: The value was 0.94 ± 0.40 % ID/g.

Q: And the “Biodistribution, Stomach” value ([2]; i.v., 2 min post-injection)?
A: The value was 0.18 ± 0.09 % ID/g.

Q: What about the “Biodistribution, Striatum” value ([2]; i.v., 2 min post-injection) of the same compound?
A: The value was 0.47 ± 0.10 % ID/g.

Q: What about the “Biodistribution, Blood” value ([2]; i.v., 30 min post-injection) of the same compound?
A: Its value is 0.05 ± 0.01 % ID/g.

Q: What about the “Biodistribution, Cerebellum” value ([2]; i.v., 30 min post-injection) of the same compound?
A: Its value is 0.55 ± 0.11 % ID/g.

Q: And the “Biodistribution, Cortex” value ([2]; i.v., 30 min post-injection)?
A: The value was 0.62 ± 0.10 % ID/g.

Q: What about the “Biodistribution, Heart” value ([2]; i.v., 30 min post-injection) of the same compound?
A: Its value is 0.44 ± 0.06 % ID/g.

Q: What about the “Biodistribution, Kidney” value ([2]; i.v., 30 min post-injection) of the same compound?
A: The value was 2.35 ± 0.38 % ID/g.

Q: And the “Biodistribution, Liver” value ([2]; i.v., 30 min post-injection)?
A: The value was 2.60 ± 0.75 % ID/g.

Q: And the “Biodistribution, Lung” value ([2]; i.v., 30 min post-injection)?
A: Its value is 2.51 ± 0.90 % ID/g.

Q: What about the “Biodistribution, Pancreas” value ([2]; i.v., 30 min post-injection) of the same compound?
A: The value was 4.67 ± 0.58 % ID/g.

Q: And the “Biodistribution, Rest brain” value ([2]; i.v., 30 min post-injection)?
A: The value was 0.55 ± 0.09 % ID/g.

Q: What about the “Biodistribution, Small intestine” value ([2]; i.v., 30 min post-injection) of the same compound?
A: Its value is 1.45 ± 0.50 % ID/g.

Q: And the “Biodistribution, Spleen” value ([2]; i.v., 30 min post-injection)?
A: The value was 1.37 ± 0.27 % ID/g.

Q: What about the “Biodistribution, Stomach” value ([2]; i.v., 30 min post-injection) of the same compound?
A: The value was 0.22 ± 0.23 % ID/g.

Q: And the “Biodistribution, Striatum” value ([2]; i.v., 30 min post-injection)?
A: The value was 0.63 ± 0.09 % ID/g.

Q: What about the “Biodistribution, Blood” value ([2]; i.v., 60 min post-injection) of the same compound?
A: The value was 0.04 ± 0.01 % ID/g.

Q: And the “Biodistribution, Cerebellum” value ([2]; i.v., 60 min post-injection)?
A: Its value is 0.41 ± 0.07 % ID/g.

Q: What about the “Biodistribution, Cortex” value ([2]; i.v., 60 min post-injection) of the same compound?
A: Its value is 0.51 ± 0.06^! % ID/g.

Q: What about the “Biodistribution, Heart” value ([2]; i.v., 60 min post-injection) of the same compound?
A: Its value is 0.25 ± 0.05 % ID/g.

Q: What about the “Biodistribution, Kidney” value ([2]; i.v., 60 min post-injection) of the same compound?
A: The value was 2.21 ± 0.17 % ID/g.

Q: And the “Biodistribution, Liver” value ([2]; i.v., 60 min post-injection)?
A: The value was 2.19 ± 0.17 % ID/g.

Q: What about the “Biodistribution, Lung” value ([2]; i.v., 60 min post-injection) of the same compound?
A: Its value is 1.54 ± 0.41 % ID/g.

Q: What about the “Biodistribution, Pancreas” value ([2]; i.v., 60 min post-injection) of the same compound?
A: The value was 4.21 ± 0.20 % ID/g.

Q: And the “Biodistribution, Rest brain” value ([2]; i.v., 60 min post-injection)?
A: The value was 0.47 ± 0.06^+ % ID/g.

Q: What about the “Biodistribution, Small intestine” value ([2]; i.v., 60 min post-injection) of the same compound?
A: Its value is 1.85 ± 0.14 % ID/g.

Q: What about the “Biodistribution, Spleen” value ([2]; i.v., 60 min post-injection) of the same compound?
A: Its value is 0.91 ± 0.08 % ID/g.

Q: What about the “Biodistribution, Stomach” value ([2]; i.v., 60 min post-injection) of the same compound?
A: Its value is 0.24 ± 0.22 % ID/g.

Q: And the “Biodistribution, Striatum” value ([2]; i.v., 60 min post-injection)?
A: The value was 0.50 ± 0.07^$ % ID/g.

Q: And the “time post-injection of highest accumulation in the brain” value ([2]; i.v., all brain regions)?
A: The value was 30 min.

Q: What about the “regional brain uptake with co-injection of (+)-3-PPP” value ([3]; 0.25 μmol (+)-3-PPP co-injected i.v., all four brain regions) of the same compound?
A: The value was 72–82 % of control.

Q: And the “regional brain uptake with co-injection of (+)-pentazocine” value ([3]; 0.25 μmol (+)-pentazocine co-injected i.v., all four brain regions)?
A: Its value is 72–82 % of control.

Q: What about the “regional brain uptake with co-injection of vesamicol” value ([3]; 0.25 μmol (+/-)-vesamicol co-injected i.v., all four brain regions) of the same compound?
A: Its value is “approximately 25 % of control”.

Q: And the “decrease in brain uptake by vesamicol” value ([3]; 0.250 μmol vesamicol co-injected)?
A: Its value is 71–73%.

Q: Which results are given for `O[C@H]1C[C@@H]2CCCC[C@H]2C[C@@H]1N1CCC(c2ccccc2I)CC1` [(+)-OIDV, (2S,3S,4aS,8aS)-3-(4-(2-iodophenyl)piperidin-1-yl)decahydronaphthalen-2-ol]?
A: Ki [4]: 101 ± 18.8 nM; Ki [5]: 316 ± 26.3 nM
